Test results as given in patent US11807693B2 (priority 2014, dated 2023).
pEC50: −log10 of the molar value. Like-named read-outs stand apart in the source and are kept apart here. Starred links: 1 amine or outer side, 2 acyl side, 3 side chain; linkers in the order of their positions; H or OH if unused. Non-standard residues stand in square brackets, D forms with d. Residues, ends and D or L forms follow the SMILES beside them. ξ: configuration not given here. *: point of attachment. Oic = O=C(O)[C@@H]1C[C@@H]2CCCC[C@@H]2N1; Phe(4-Cl) = N[C@@H](Cc1ccc(Cl)cc1)C(=O)O; γGlu = O=C(O)[C@H](CCC(=O)[*:2])N[*:1]; 2Nal = N[C@@H](Cc1ccc2ccccc2c1)C(=O)O; d(β3hF) = N[C@@H](CC(=O)O)Cc1ccccc1; NMeR = CN[C@@H](CCCNC(=N)N)C(=O)O; Palmitoyl = CCCCCCCCCCCCCCCC(=O)*; Tridecanoyl = CCCCCCCCCCCCC(=O)*; hArg = N=C(N)NCCCC[C@H](N)C(=O)O; 3Pal = N[C@@H](Cc1cccnc1)C(=O)O; Cha = N[C@@H](CC1CCCCC1)C(=O)O; αMeL = CC(C)C[C@](C)(N)C(=O)O; β3hP = O=C(O)C[C@@H]1CCCN1; Pip = O=C(O)[C@@H]1CCCCN1; Nle = CCCC[C@H](N)C(=O)O; ξαMeP = CC1(C(=O)O)CCCN1; ξβ3hV = CC(C)C(N)CC(=O)O; AEEA = NCCOCCOCC(=O)O; Aib = CC(C)(N)C(=O)O; βAla = NCCC(=O)O

Key:
rat APJ receptor = target: T1, rat APJ receptor (Rattus norvegicus, UniProt Q9JHG3); assay: [35S] GTPγS assay, rat APJ receptor; assay type: biochemical
T1 construct: expressed in transfected cells
T1 sequence (Q9JHG3 1-377): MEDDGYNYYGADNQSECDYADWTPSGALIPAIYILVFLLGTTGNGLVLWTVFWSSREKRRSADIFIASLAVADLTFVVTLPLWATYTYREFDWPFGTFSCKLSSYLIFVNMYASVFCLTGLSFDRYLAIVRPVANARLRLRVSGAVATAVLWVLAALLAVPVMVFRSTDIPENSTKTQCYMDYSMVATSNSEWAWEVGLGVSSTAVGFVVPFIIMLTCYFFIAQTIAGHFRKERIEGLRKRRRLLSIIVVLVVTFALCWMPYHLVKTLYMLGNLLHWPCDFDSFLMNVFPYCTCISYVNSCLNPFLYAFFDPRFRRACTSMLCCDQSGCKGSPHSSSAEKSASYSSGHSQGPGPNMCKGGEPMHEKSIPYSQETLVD
Method: The membranes were incubated with modified peptides in the assay buffer. […] Bound [^35S] GTPγS was separated from free radiolabel by filtration. The filter bound radioactivity was determined by liquid scintillation counting.

[1] = In vitro stability in rat plasma; assay type: in vitro ADME
Method: (§1) Apelin peptides were spiked into rat plasma, liver homogenate, and kidney homogenate, which were obtained from commercial sources, to a final concentration of 5 μM. The samples were then incubated at 37° C. over a period of 4 hr. […] In a typical experiment, an aliquot of 100 μL of sample was taken from the incubation vial, followed by addition of 300 μL of MeOH containing internal standard. The quenched sample was centrifuged at 5500 g for 15 min after 15 min vortex in room temperature. The supernatant was then analyzed by high resolution LC-MS. […] In vitro plasma, […], and kidney stability results are shown below in Table 14.

[2] = In vitro stability in rat liver homogenate; assay type: in vitro ADME; conditions: tissue homogenate
Method: as §1

[3] = rat APJ receptor, read-out: EC50 Rat APJ Receptor

Molecule | remaining at 4 h, 5 μM [1] | remaining at 4 h, 5 μM [2] | also measured
{H2}[MerPr](10K mPEGacetamide)QRPRLSHKGPMPF{COOH} (N-terminal MerPr 10K mPEG acetamide; source: /note="N-term MerPr(10KmPEGacetamide)") [SEQ ID NO: 110, reference compound] | – | – | pEC50 (rat APJ receptor; aqueous stock, absence of DMSO, read-out: rAPJ EC50): 6.41
CCCCCC(=O)N[C@@H](CCC(=O)NCCOCCOCC(=O)NCCOCCOCC(=O)N[C@@H](CCC(N)=O)C(=O)N[C@@H](CCCNC(=N)N)C(=O)N1CCC[C@H]1C(=O)N(C)[C@@H](CCCNC(=N)N)C(=O)N[C@@H](CC(C)C)C(=O)N[C@@H](CO)C(=O)N[C@@H](Cc1c[nH]cn1)C(=O)N[C@@H](CCCCN)C(=O)NCC(=O)N1CCC[C@H]1C(=O)N[C@@H](CCCC)C(=O)N1CCC[C@H]1C(=O)N[C@@H](Cc1ccc(Cl)cc1)C(=O)O)C(=O)O [compound 492] | – | – | pEC50 (rat APJ receptor; [3]): 9.83
CSCC[C@H](NC(=O)[C@@H]1CCCN1C(=O)CNC(=O)[C@H](CCCCN)NC(=O)[C@H](Cc1c[nH]cn1)NC(=O)[C@H](CO)NC(=O)[C@H](CC(C)C)NC(=O)[C@H](CCCNC(=N)N)NC(=O)[C@@H]1CCCN1C(=O)[C@H](CCCNC(=N)N)NC(=O)[C@H](CCC(N)=O)NC(=O)[C@H](CCCNC(=N)N)NC(=O)[C@H](CCCNC(=N)N)NC(=O)[C@H](Cc1ccccc1)NC(=O)[C@@H](N)CCCCN)C(=O)N1CCC[C@H]1C(=O)O [compound 12] | – | – | pEC50 (rat APJ receptor; [3]): 8.24
CCCCCCCCCCCCCCCC(=O)N[C@@H](CCC(=O)NCCOCCOCC(=O)NCCOCCOCC(=O)N[C@H](CCC(N)=O)C(=O)N[C@@H](CCCNC(=N)N)C(=O)N1CCC[C@H]1C(=O)N(C)[C@@H](CCCNC(=N)N)C(=O)N[C@@H](CC1CCCCC1)C(=O)N[C@@H](CO)C(=O)N[C@@H](Cc1c[nH]cn1)C(=O)N[C@@H](Cc1cccnc1)C(=O)NCC(=O)N1[C@H](C(=O)N[C@@H](CCCC)C(=O)N2CCC[C@H]2CC(=O)N[C@@H](CC(=O)O)Cc2ccccc2)C[C@@H]2CCCC[C@@H]21)C(=O)O [compound 620] ({Palmitoyl-γGlu-AEEA-AEEA}-[dQ]RP[NMeR][Cha]SH[3Pal]G[Oic][Nle][β3hP][d(β3hF)]-OH) | – | – | pEC50 (rat APJ receptor; [3]): 7.83
CCCCCCCCCC(=O)N[C@@H](CCC(=O)NCCOCCOCC(=O)NCCOCCOCC(=O)N[C@@H](CCC(N)=O)C(=O)N[C@@H](CCCNC(=N)N)C(=O)N1CCC[C@H]1C(=O)N(C)[C@@H](CCCNC(=N)N)C(=O)N[C@@H](CC(C)C)C(=O)N[C@@H](CO)C(=O)N[C@@H](Cc1c[nH]cn1)C(=O)N[C@@H](CCCCN)C(=O)NCC(=O)N1CCC[C@H]1C(=O)N[C@@H](CCCC)C(=O)N1CCC[C@H]1C(=O)N[C@@H](Cc1ccc(Cl)cc1)C(=O)O)C(=O)O [compound 494] | – | – | pEC50 (rat APJ receptor; [3]): 9.83
CCCCCCCCCCCCC(=O)N[C@@H](CCC(=O)NCCOCCOCC(=O)NCCOCCOCC(=O)N[C@@H](CCC(N)=O)C(=O)N[C@@H](CCCNC(=N)N)C(=O)N1CCC[C@H]1C(=O)N[C@@H](CCCCNC(=N)N)C(=O)N[C@@](C)(CC(C)C)C(=O)N[C@@H](CO)C(=O)N[C@@H](Cc1c[nH]cn1)C(=O)N[C@@H](CCCCN)C(=O)NCC(=O)N1CCC[C@H]1C(=O)N[C@@H](CCCC)C(=O)N1CCC[C@H]1C(=O)N[C@@H](Cc1ccc2ccccc2c1)C(=O)O)C(=O)O [compound 404] ({Tridecanoyl-γGlu-AEEA-AEEA}-QRP[hArg][αMeL]SHKGP[Nle]P[2Nal]-OH) | – | – | pEC50 (rat APJ receptor; Table 16, read-out: EC50 Rat APJ Receptor): 9.44
CCCCCCCCCCCCC(=O)N[C@@H](CCC(=O)NCCOCCOCC(=O)NCCOCCOCC(=O)N[C@@H](CCC(N)=O)C(=O)N[C@@H](CCCNC(=N)N)C(=O)N1CCC[C@H]1C(=O)N(C)[C@@H](CCCNC(=N)N)C(=O)N[C@H](CC(=O)N[C@@H](CO)C(=O)N[C@@H](Cc1c[nH]cn1)C(=O)N[C@@H](CCCCN)C(=O)NCC(=O)N1CCC[C@H]1C(=O)N[C@@H](CCCC)C(=O)N1CCC[C@H]1C(=O)N[C@@H](Cc1ccc(Cl)cc1)C(=O)O)CC(C)C)C(=O)O [compound 422] | 37% | < 1% | –
CCCCCCCCCCCCC(=O)N[C@@H](CCC(=O)NCCOCCOCC(=O)NCCOCCOCC(=O)N[C@@H](CCC(N)=O)C(=O)N[C@@H](CCCNC(=N)N)C(=O)N1CCC[C@H]1C(=O)N(C)[C@@H](CCCNC(=N)N)C(=O)N[C@@H](CC(C)C)C(=O)N[C@@H](CO)C(=O)N[C@@H](Cc1c[nH]cn1)C(=O)N[C@@H](CCCCN)C(=O)NCC(=O)N1CCC[C@H]1C(=O)N[C@@H](CCCC)C(=O)NCCC(=O)N[C@@H](Cc1ccc(Cl)cc1)C(=O)O)C(=O)O [compound 425] ({Tridecanoyl-γGlu-AEEA-AEEA}-QRP[NMeR]LSHKGP[Nle][βAla][Phe(4-Cl)]-OH) | > 90% | < 1% | –
CCCCCCCCCCCCC(=O)N[C@@H](CCC(=O)NCCOCCOCC(=O)NCCOCCOCC(=O)N[C@@H](CCC(N)=O)C(=O)N[C@H](CCCNC(=N)N)C(=O)N1CCC[C@H]1C(=O)N(C)[C@@H](CCCCNC(=N)N)C(=O)NC(CC(=O)N[C@@H](CO)C(=O)N[C@@H](Cc1c[nH]cn1)C(=O)N[C@@H](CCCCN)C(=O)NCC(=O)N1CCC[C@H]1C(=O)N[C@@H](CCCC)C(=O)N1CCC[C@H]1C(=O)N[C@@H](Cc1ccc(Cl)cc1)C(=O)O)C(C)C)C(=O)O (stereo partly drawn) [compound 384] | 25% | < 1% | –
CCCCCCCCCCCCC(=O)N[C@@H](CCC(=O)NCCOCCOCC(=O)NCCOCCOCC(=O)N[C@@H](CCC(N)=O)C(=O)N[C@@H](CCCNC(=N)N)C(=O)N1CCC[C@H]1C(=O)N(C)[C@@H](CCCNC(=N)N)C(=O)N[C@@H](CC(C)C)C(=O)N[C@@H](CO)C(=O)N[C@H](CN[C@@H](CCCCN)C(=O)NCC(=O)N1CCC[C@H]1C(=O)N[C@@H](CCCC)C(=O)N1CCC[C@H]1C(=O)N[C@@H](Cc1ccc(Cl)cc1)C(=O)O)Cc1c[nH]cn1)C(=O)O [compound 469] | 36% | < 1% | –
CCCCCCCCCCCCC(=O)N[C@@H](CCC(=O)NCCOCCOCC(=O)NCCOCCOCC(=O)N[C@H](CCC(N)=O)C(=O)N[C@@H](CCCNC(=N)N)C(=O)N1CCCC1(C)C(=O)N[C@@H](CCCCNC(=N)N)C(=O)NC(CC(=O)N[C@@H](CO)C(=O)N[C@@H](Cc1c[nH]cn1)C(=O)N[C@@H](CCCCN)C(=O)NCC(=O)N1CCCC[C@H]1C(=O)N[C@@H](CCCC)C(=O)N[C@@H](Cc1ccc(Cl)cc1)C(=O)O)C(C)C)C(=O)O (stereo partly drawn) [compound 501] ({Tridecanoyl-γGlu-AEEA-AEEA}-[dQ]R[ξαMeP][hArg][ξβ3hV]SHKG[Pip][Nle][Phe(4-Cl)]-OH) | > 90% | < 1% | –
CCCCCCCCCCCCC(=O)N[C@@H](CCC(=O)NCCOCCOCC(=O)NCCOCCOCC(=O)N[C@H](CCC(N)=O)C(=O)N[C@@H](CCCNC(=N)N)C(=O)N1CCC[C@H]1C(=O)N(C)[C@@H](CCCNC(=N)N)C(=O)N[C@@H](CC1CCCCC1)C(=O)N[C@@H](CO)C(=O)N[C@@H](Cc1c[nH]cn1)C(=O)N[C@@H](CCCCN)C(=O)NCC(=O)N1CCCC[C@H]1C(=O)N[C@@H](CCCC)C(=O)NC(C)(C)C(=O)N[C@@H](Cc1ccc(Cl)cc1)C(=O)O)C(=O)O [compound 499] ({Tridecanoyl-γGlu-AEEA-AEEA}-[dQ]RP[NMeR][Cha]SHKG[Pip][Nle][Aib][Phe(4-Cl)]-OH) | > 90% | < 1% | –
CCCCCCCCCCCCC(=O)N[C@@H](CCC(=O)NCCOCCOCC(=O)NCCOCCOCC(=O)N[C@@H](CCC(N)=O)C(=O)N[C@H](CCCNC(=N)N)C(=O)N1CCC[C@H]1C(=O)N[C@@H](CCCCNC(=N)N)C(=O)N[C@@](C)(CC(C)C)C(=O)N[C@@H](CO)C(=O)N[C@@H](Cc1c[nH]cn1)C(=O)N[C@@H](CCCCN)C(=O)NCC(=O)N1CCC[C@H]1C(=O)N[C@@H](CCCC)C(=O)N1CCC[C@H]1C(=O)N[C@@H](Cc1ccc(Cl)cc1)C(=O)O)C(=O)O [compound 485] | 74% | < 1% | –
CCCCCCCCCCCCC(=O)N[C@@H](CCC(=O)NCCOCCOCC(=O)NCCOCCOCC(=O)N[C@@H](CCC(N)=O)C(=O)N[C@@H](CCCNC(=N)N)C(=O)N1CCC[C@H]1C(=O)N[C@@H](CCCCNC(=N)N)C(=O)N[C@@H](CC(C)C)C(=O)N[C@@H](CO)C(=O)N[C@@H](Cc1c[nH]cn1)C(=O)N[C@@H](CCCCN)C(=O)NCC(=O)N1CCC[C@H]1C(=O)N[C@@H](CCCC)C(=O)N1CCC[C@H]1C(=O)N[C@@H](Cc1ccc(Cl)cc1)C(=O)O)C(=O)O [compound 355] | 64% | 0% | –
CCCCCCCCCCCCC(=O)N[C@@H](CCC(=O)NCCOCCOCC(=O)NCCOCCOCC(=O)N[C@@H](CCC(N)=O)C(=O)N[C@@H](CCCNC(=N)N)C(=O)N1CCC[C@H]1C(=O)N(C)[C@@H](CCCNC(=N)N)C(=O)N[C@@](C)(CC(C)C)C(=O)N[C@@H](CO)C(=O)N[C@@H](Cc1c[nH]cn1)C(=O)N[C@@H](CCCCN)C(=O)NCC(=O)N1CCC[C@H]1C(=O)N[C@@H](CCCC)C(=O)N1CCC[C@H]1C(=O)N[C@@H](Cc1ccc(Cl)cc1)C(=O)O)C(=O)O [compound 457] | 62% | < 1% | –
